Data reported in US20140107021A1 (priority 2010, published 2014).
Read-outs that look alike come from different tables or passages of the source. Square brackets hold non-standard residues; d marks the D form. Ends that are not written are not given here. Peptide text beside a SMILES is read from it. MCA = alpha-methylhydrocinnamic acid (2-methyl-3-phenylpropanoic acid); PEG 20 kDa = PEG of about 20 kDa linked to Cys (maleimido methoxyPEG); PLA = 3-phenyllactic acid (2-hydroxy-3-phenylpropanoic acid)

Experiments:
glucagon receptor [1] = target: T1, glucagon receptor (Homo sapiens, UniProt P47871); test: cell-based; conditions: for IC50(nM) (cΛMP, inhibit 0.2 mM Glucagon): Table L
Description: (§1) HEK293 cells co-transfected with the receptor and luciferase gene linked to a cAMP responsive element were employed for the bioassay.
(§2) All EC50s and IC50s are reported in the following examples in nM, unless indicated otherwise.

glucagon receptor [2] = target: T1, glucagon receptor; test: cAMP induction at the glucagon receptor (agonist activity), luciferase reporter assay in HEK293 cells; format: cell-based; set-up: expressed in transfected cells; host or cells: HEK293; conditions: Table E; read-out: cAMP Induction EC50
Description: as §1, §2

GLP-1 receptor = target: T2, GLP-1 receptor (Homo sapiens, UniProt P43220); test: cAMP induction at the GLP-1 receptor (agonist activity), firefly luciferase reporter assay in HEK293 cells; format: cell-based
T2 construct: expressed in transfected cells; host or cells: HEK293
Description: as §1, §2

T1 sequence (P47871 26-477): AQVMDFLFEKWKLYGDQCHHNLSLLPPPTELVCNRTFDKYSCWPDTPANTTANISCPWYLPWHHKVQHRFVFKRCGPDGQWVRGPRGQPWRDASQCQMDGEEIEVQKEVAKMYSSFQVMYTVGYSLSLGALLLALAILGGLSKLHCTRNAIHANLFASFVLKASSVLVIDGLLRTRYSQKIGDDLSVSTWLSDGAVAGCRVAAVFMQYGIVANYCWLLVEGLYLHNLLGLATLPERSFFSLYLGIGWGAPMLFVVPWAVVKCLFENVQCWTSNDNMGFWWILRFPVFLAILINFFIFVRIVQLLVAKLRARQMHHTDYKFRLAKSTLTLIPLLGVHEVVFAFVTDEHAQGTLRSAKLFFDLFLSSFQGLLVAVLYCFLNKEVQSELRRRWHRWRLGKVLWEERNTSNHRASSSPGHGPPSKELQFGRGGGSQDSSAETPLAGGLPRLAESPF
T2 sequence (P43220 24-463): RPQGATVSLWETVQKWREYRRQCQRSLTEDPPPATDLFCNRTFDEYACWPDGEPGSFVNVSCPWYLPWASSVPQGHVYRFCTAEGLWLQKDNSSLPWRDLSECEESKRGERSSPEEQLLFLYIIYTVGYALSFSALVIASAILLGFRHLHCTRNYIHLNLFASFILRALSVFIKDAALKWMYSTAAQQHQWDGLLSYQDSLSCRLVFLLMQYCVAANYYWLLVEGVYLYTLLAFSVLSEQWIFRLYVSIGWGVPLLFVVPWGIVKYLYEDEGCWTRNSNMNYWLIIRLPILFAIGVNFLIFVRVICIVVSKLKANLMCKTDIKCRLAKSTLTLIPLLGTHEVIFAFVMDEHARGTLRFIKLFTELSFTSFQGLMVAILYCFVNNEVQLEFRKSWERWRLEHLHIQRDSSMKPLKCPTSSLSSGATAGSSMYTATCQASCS

“[PLA6, C8(1.2 kDaPEG), E9]Glucagon(aa6-29)-NH2 ({PLA}-TC(PEG 1.2 kDa)EYSKYLDSRRAQDFVQWLMNT-NH2)” was tested, and the “IC50(nM) (cΛMP, inhibit 0.2 mM Glucagon)” value (glucagon receptor [1]) was “no antagonism”.

In the case of `CC(C)C[C@H](NC(=O)[C@H](Cc1ccc(O)cc1)NC(=O)[C@H](CCCCN)NC(=O)[C@H](CO)NC(=O)[C@H](Cc1ccc(O)cc1)NC(=O)[C@H](CCS(=O)(=O)O)NC(=O)[C@H](CO)NC(=O)[C@@H](NC(=O)[C@H](Cc1ccccc1)NC(=O)[C@@H](NC(=O)[C@H](CC(C)C)NC(=O)[C@H](CCC(N)=O)NC(=O)[C@@H](N)CO)[C@@H](C)O)[C@@H](C)O)C(=O)N[C@@H](CC(=O)O)C(=O)N[C@@H](CO)C(=O)N[C@@H](CCCNC(=N)N)C(=O)N[C@@H](CCCNC(=N)N)C(=O)N[C@@H](C)C(=O)N[C@@H](CCC(N)=O)C(=O)N[C@@H](CC(=O)O)C(=O)N[C@@H](Cc1ccccc1)C(=O)N[C@H](C(=O)N[C@@H](CCC(N)=O)C(=O)N[C@@H](Cc1ccccc1)C(=O)N[C@@H](CC(C)C)C(=O)N[C@@H](CC(C)C)C(=O)N[C@@H](CC(N)=O)C(=O)N[C@H](C(N)=O)[C@@H](C)O)C(C)C` [[desHis^1, Leu^4, hCys^9(SO3—), Phe^25, Leu^27]Glucagon-NH2] (HELM PEPTIDE1{S.Q.L.T.F.T.S.[O=C([C@H](CCS(=O)(=O)O)N[*:1])[*:2]].Y.S.K.Y.L.D.S.R.R.A.Q.D.F.V.Q.F.L.L.N.T.[am]}$$$$V2.0), the EC50 (glucagon receptor [2]) is reported as 1610 ± 1130 nM.

`CSCC[C@H](NC(=O)[C@H](CC(C)C)NC(=O)[C@H](Cc1c[nH]c2ccccc12)NC(=O)[C@H](CCC(N)=O)NC(=O)[C@@H](NC(=O)[C@H](Cc1ccccc1)NC(=O)[C@H](CC(=O)O)NC(=O)[C@H](CCC(N)=O)NC(=O)[C@H](C)NC(=O)[C@H](CCCNC(=N)N)NC(=O)[C@H](CCCNC(=N)N)NC(=O)[C@H](CO)NC(=O)[C@H](CC(=O)O)NC(=O)[C@H](CC(C)C)NC(=O)[C@H](Cc1ccc(O)cc1)NC(=O)[C@H](CCCCN)NC(=O)[C@H](CO)NC(=O)[C@H](Cc1ccc(O)cc1)NC(=O)[C@H](CCS(=O)(=O)O)NC(=O)[C@H](CO)NC(=O)[C@@H](NC(=O)[C@H](Cc1ccccc1)NC(=O)[C@@H](NC(=O)CN)[C@@H](C)O)[C@@H](C)O)C(C)C)C(=O)N[C@@H](CC(N)=O)C(=O)N[C@H](C(N)=O)[C@@H](C)O` [[hCys^9(SO3H)]Glucagon(aa4-29)-NH2] (HELM PEPTIDE1{G.T.F.T.S.[O=C([C@H](CCS(=O)(=O)O)N[*:1])[*:2]].Y.S.K.Y.L.D.S.R.R.A.Q.D.F.V.Q.W.L.M.N.T.[am]}$$$$V2.0; N-terminus assumed) showed a Kb (glucagon receptor [1]) of 60.3 nM.

In the case of “[MCA6, E9, C24(20 kDaPEG)]Glucagon(aa6-29)-NII2 ([MCA]TSEYSKYLDSRRAQDFVC(PEG 20 kDa)WLMNT-NH2)”, the “IC50(nM) (cΛMP, inhibit 0.2 mM Glucagon)” value (glucagon receptor [1]) is reported as “no antagonism”.

“GTFTSEYSKYLDSRRAQDFVQWLMNT-NH2 [[Glu^9]Glucagon(aa4-29)-NH2]” showed a Kb (glucagon receptor [1]) of 89.1 nM.

Molecule `CSCC[C@H](NC(=O)[C@H](CC(C)C)NC(=O)[C@H](Cc1c[nH]c2ccccc12)NC(=O)[C@H](CCC(N)=O)NC(=O)[C@@H](NC(=O)[C@H](Cc1ccccc1)NC(=O)[C@H](CC(=O)O)NC(=O)[C@H](CCC(N)=O)NC(=O)[C@H](C)NC(=O)[C@H](CCCNC(=N)N)NC(=O)[C@H](CCCNC(=N)N)NC(=O)[C@H](CO)NC(=O)[C@H](CC(=O)O)NC(=O)[C@H](CC(C)C)NC(=O)[C@H](Cc1ccc(O)cc1)NC(=O)[C@H](CCCCN)NC(=O)[C@H](CO)NC(=O)[C@H](Cc1ccc(O)cc1)NC(=O)[C@H](CCS(=O)(=O)O)NC(=O)[C@H](CO)NC(=O)[C@@H](NC(=O)[C@H](Cc1ccccc1)NC(=O)[C@@H](N)[C@@H](C)O)[C@@H](C)O)C(C)C)C(=O)N[C@@H](CC(N)=O)C(=O)N[C@H](C(N)=O)[C@@H](C)O` [[hCys^9(SO3H)]Glucagon(aa5-29)-NH2] (HELM PEPTIDE1{T.F.T.S.[O=C([C@H](CCS(=O)(=O)O)N[*:1])[*:2]].Y.S.K.Y.L.D.S.R.R.A.Q.D.F.V.Q.W.L.M.N.T.[am]}$$$$V2.0; N-terminus assumed) has a Kb (glucagon receptor [1]) of 170 nM.

Work on `CSCC[C@H](NC(=O)[C@H](CC(C)C)NC(=O)[C@H](Cc1c[nH]c2ccccc12)NC(=O)[C@H](CCC(N)=O)NC(=O)[C@@H](NC(=O)[C@H](Cc1ccccc1)NC(=O)[C@H](CC(=O)O)NC(=O)[C@@H]1CCCCNC(=O)CC[C@H](NC(=O)[C@H](CC(=O)O)NC(=O)[C@H](CC(C)C)NC(=O)[C@H](Cc2ccc(O)cc2)NC(=O)[C@H](CCCCN)NC(=O)[C@H](CO)NC(=O)[C@H](Cc2ccc(O)cc2)NC(=O)[C@H](CCC(=O)O)NC(=O)[C@H](CO)NC(=O)[C@@H](NC(=O)[C@@H](O)Cc2ccccc2)[C@@H](C)O)C(=O)N[C@@H](CCCNC(=N)N)C(=O)N[C@@H](CCCNC(=N)N)C(=O)N[C@@H](C)C(=O)N1)C(C)C)C(=O)N[C@@H](CC(N)=O)C(=O)N[C@H](C(=O)NCC(=O)N1CCC[C@H]1C(=O)N[C@@H](CO)C(=O)N[C@@H](CO)C(=O)NCC(=O)N[C@@H](C)C(=O)N1CCC[C@H]1C(=O)N1CCC[C@H]1C(=O)N1CCC[C@H]1C(=O)N[C@@H](CO)C(N)=O)[C@@H](C)O` [[PLA6, E9, E16K20(Lactam)]] yielded an EC50 (GLP-1 receptor; GLP-1 EC50 (nM), Table C) of 20 nM, an EC50 (GLP-1 receptor; GLP-1 ECso (nM), Table A) of 20 nM and an IC50 (glucagon receptor [1]; Glu ICso (nM), Table A, Glu = glucagon) of 20 nM. The IC50 (glucagon receptor [1]; Glucagon IC50 (nM), Table C) was 20 nM.

In the case of `CSCC[C@H](NC(=O)[C@H](CC(C)C)NC(=O)[C@H](Cc1c[nH]c2ccccc12)NC(=O)[C@H](CCC(N)=O)NC(=O)[C@@H](NC(=O)[C@H](Cc1ccccc1)NC(=O)[C@H](CC(=O)O)NC(=O)[C@@H]1CCCCNC(=O)CC[C@H](NC(=O)[C@H](CC(=O)O)NC(=O)[C@H](CC(C)C)NC(=O)[C@H](Cc2ccc(O)cc2)NC(=O)[C@H](CCCCN)NC(=O)[C@H](CO)NC(=O)[C@H](Cc2ccc(O)cc2)NC(=O)[C@H](CCC(=O)O)NC(=O)[C@H](CO)NC(=O)[C@@H](NC(=O)[C@H](Cc2ccccc2)NC(=O)[C@@H](NC(=O)CNC(=O)[C@H](CCC(=O)O)NC(=O)[C@H](C)N)[C@@H](C)O)[C@@H](C)O)C(=O)N[C@@H](CCCNC(=N)N)C(=O)N[C@@H](CCCNC(=N)N)C(=O)N[C@@H](C)C(=O)N1)C(C)C)C(=O)N[C@@H](CC(=O)O)C(=O)N[C@H](C(N)=O)[C@@H](C)O` [[A2E3, E16K20(Lactam),D28]G(2~29)], the IC50 (glucagon receptor [1]; read-out: Glucagon IC50, Table B) is reported as 63 nM.

In the case of `CSCC[C@H](NC(=O)[C@H](CC(C)C)NC(=O)[C@H](Cc1c[nH]c2ccccc12)NC(=O)[C@H](CCC(N)=O)NC(=O)[C@@H](NC(=O)[C@H](Cc1ccccc1)NC(=O)[C@H](CC(=O)O)NC(=O)[C@H](CCC(N)=O)NC(=O)[C@H](C)NC(=O)[C@H](CCCNC(=N)N)NC(=O)[C@H](CCCNC(=N)N)NC(=O)[C@@H]1CCC(=O)NCCCC[C@H](NC(=O)[C@H](CO)NC(=O)[C@H](Cc2ccc(O)cc2)NC(=O)[C@H](CC(=O)O)NC(=O)[C@H](CO)NC(=O)[C@@H](NC(=O)[C@@H](O)Cc2ccccc2)[C@@H](C)O)C(=O)N[C@@H](Cc2ccc(O)cc2)C(=O)N[C@@H](CC(C)C)C(=O)N[C@@H](CC(=O)O)C(=O)N1)C(C)C)C(=O)N[C@@H](CC(=O)O)C(=O)N[C@H](C(N)=O)[C@@H](C)O` [[PLA6, D9, K12E16(Lactam), D28]G(6-29)] (HELM PEPTIDE1{[O=C([C@@H](O)Cc1ccccc1)[*:2]].T.S.D.Y.S.K.Y.L.D.E.R.R.A.Q.D.F.V.Q.W.L.M.D.T.[am]}$PEPTIDE1,PEPTIDE1,7:R3-11:R3$$$V2.0), the IC50 (glucagon receptor [1]; Glucagon IC50 (nM), Table B) is reported as 63 nM.

`CSCC[C@H](NC(=O)[C@H](CC(C)C)NC(=O)[C@H](Cc1c[nH]c2ccccc12)NC(=O)[C@H](CCC(N)=O)NC(=O)[C@@H](NC(=O)[C@H](Cc1ccccc1)NC(=O)[C@H](CC(=O)O)NC(=O)[C@H](CCC(N)=O)NC(=O)[C@H](C)NC(=O)[C@H](CCCNC(=N)N)NC(=O)[C@H](CCCNC(=N)N)NC(=O)[C@H](CO)NC(=O)[C@H](CC(=O)O)NC(=O)[C@H](CC(C)C)NC(=O)[C@H](Cc1ccc(O)cc1)NC(=O)[C@H](CCCCN)NC(=O)[C@H](CO)NC(=O)[C@H](Cc1ccc(O)cc1)NC(=O)[C@H](CCC(=O)O)NC(=O)[C@H](CO)NC(=O)[C@@H](NC(=O)[C@H](Cc1ccccc1)NC(=O)[C@@H](NC(=O)[C@@H](O)Cc1ccccc1)[C@@H](C)O)[C@@H](C)O)C(C)C)C(=O)N[C@@H](CC(N)=O)C(=O)N[C@H](C(N)=O)[C@@H](C)O` [[PLA^4, E^9]Glucagon(aa4-29)-NH2] (HELM PEPTIDE1{[O=C([C@@H](O)Cc1ccccc1)[*:2]].T.F.T.S.E.Y.S.K.Y.L.D.S.R.R.A.Q.D.F.V.Q.W.L.M.N.T.[am]}$$$$V2.0) was tested, and the IC50 (glucagon receptor [1]; IC50(nM) (cAMP, inhibit 0.8 mM Glucagon), Table K, inhibit 0.8 mM Glucagon) was 84.4 ± 19.5 nM.

With “H-FTSKYSKYLDSRRAQDFVQWLMNT-NH2 [[Lys^9]Glucagon(aa6-29)-NH2]” the Kb (glucagon receptor [1]) was 263 nM, the “cAMP (I/A)50” value (glucagon receptor [1]) was 1990 and the “cAMP pA2” value (glucagon receptor [1]) was 6.58 ± 0.60.

“HSQGTFTSDYARYLDARRAREFIKWLVRGRG [ANK2 (Bayer peptide), reference compound]” was tested, and the “Glucagon IC50 (nM)” value (glucagon receptor [1]; Table B) was “agonist”.

In the case of “FTSDYSKYLDSRRAQDFVQWLMNT-NH2 [Glucagon(aa6-29)-NH2]”, the Kb (glucagon receptor [1]) is reported as 115 nM, the “cAMP (I/A)50” value (glucagon receptor [1]) is reported as 1730 and the “cAMP pA2” value (glucagon receptor [1]) is reported as 6.94 ± 0.63.
